# Data published in ChEMBL document CHEMBL1201862, “PubChem BioAssay data set” (2004).
# Activity calls are given as the source filed them.
# What was measured:
# Fatty acid synthase [1] = target: T1, Fatty acid synthase (Homo sapiens, UniProt P49327); assay: FAS thioesterase domain inhibitors, dose response, biochemical, endpoint fluorescence intensity, uHTS hits (AID 624327); type: functional;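 note: fluorescence from hydrolysis of an O-methyl fluorescein acyl ester substrate by the enzyme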
# Fatty acid synthase [2] = target: T1, Fatty acid synthase; assay: FAS thioesterase domain inhibitors, dose response, biochemical, kinetic fluorescence intensity (AID 624326); type: functional;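 note: rate of fluorescence rise from hydrolysis of a fluorogenic O-methyl fluorescein ester substrate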
# Cytochrome P450 2C9 [3] = target: T2, Cytochrome P450 2C9 (Homo sapiens, UniProt P11712)
# P388/ADR = assay: cells; type: functional; conditions: Mus musculus
# SN12K1 = assay: cells; type: functional; conditions: Homo sapiens
# P388 = assay: cells; type: functional; conditions: Mus musculus
# [4] = inhibitors of intracellular T. cruzi replication, confirmation, NIH3T3 host cells, beta-gal luminescence (AID 2044); type: functional, cell-based;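 note: intracellular parasites grown in NIH/3T3 mouse fibroblasts as host cells; luminescent beta-galactosidase reporter signal from transgenic T. cruzi replicating inside host cells; inhibitors lower the luminescence signal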
# [5] = target: T3, Calpain-2 catalytic subunit (Sus scrofa, UniProt P43367); assay: pig calpain II inhibitor potency, dose response, biochemical, fluorogenic peptide substrate (AID 1420); type: functional
# T3 sequence (P43367 whole entry): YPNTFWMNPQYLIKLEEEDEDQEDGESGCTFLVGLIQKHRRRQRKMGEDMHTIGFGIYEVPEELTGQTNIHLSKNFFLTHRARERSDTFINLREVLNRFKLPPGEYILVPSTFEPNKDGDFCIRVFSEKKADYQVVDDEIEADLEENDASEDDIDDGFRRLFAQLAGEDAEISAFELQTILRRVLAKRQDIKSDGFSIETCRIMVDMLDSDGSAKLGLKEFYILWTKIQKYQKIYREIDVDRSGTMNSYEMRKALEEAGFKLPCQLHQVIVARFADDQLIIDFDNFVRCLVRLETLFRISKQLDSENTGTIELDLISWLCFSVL
# [6] = cytotoxicity toward NIH3T3 fibroblasts, dose response, counter-screen, cell-based, ATP luminescence, mouse fibroblasts (AID 2010); type: functional;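 note: cells exposed to compound for about 90 hours before reading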
# Cytochrome P450 3A4 = Cytochrome P450 3A4 (Homo sapiens, UniProt P08684);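 note: CYP3A4 tested as one member of a cytochrome P450 panel screen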
# [7] = THP-1 cell cytotoxicity, dose response, cytotoxicity control for non-replicating M. tuberculosis project (AID 489025); type: functional
# BJ [8] = assay: cytotoxicity toward BJ-TERT fibroblasts, dose response, cell-based, RAS-independent, luminescence (AID 1933); type: functional; conditions: Homo sapiens
# BJ [9] = assay: cells; type: functional, cell-based; conditions: Homo sapiens
# BJ [10] = assay: cytotoxicity toward BJ-TERT-LT-ST fibroblasts, dose response, cell-based, RAS-independent, luminescence (AID 1935); type: functional; conditions: Homo sapiens;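 note: BJ fibroblasts immortalized with TERT plus LT and ST oncogenes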
# [11] = cytotoxicity toward DRD oncogenic fibroblasts, dose response, cell-based, non-viral oncogenic, luminescence (AID 1934); type: functional; conditions: Homo sapiens
# INS1 = assay: beta cell apoptosis inhibitors, cytokine rescue, dose response, luminescence, retest (AID 449756); type: functional, cell-based; conditions: Rattus norvegicus;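 note: cell death triggered by IL-1 beta plus TNF-alpha plus IFN-gamma mixture; protective hits raise ATP signal compared with cytokine alone wells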
# [12] = Luminescence Cell-Based Dose Retest to Confirm Inhibitors of Cancer Stem Cells. [Related pubchem assays (depositor defined):AID2717, AID2721]; type: functional; conditions: Homo sapiens
# Large T antigen = Large T antigen (Simian virus 40, UniProt P03070); type: functional, Betapolyomavirus macacae;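 note: Confirmatory-stage PubChem screen for compounds that inhibit SV40 T antigen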
# [13] = target: T4, Rac GTPase-activating protein 1 (Homo sapiens, UniProt Q9H0H5); assay: MgcRacGAP GTPase-activating activity inhibitors, confirmation, biochemical, ADP Hunter fluorescence, primary and confirmatory (AID 624330); type: functional
# T4 sequence (Q9H0H5 whole entry): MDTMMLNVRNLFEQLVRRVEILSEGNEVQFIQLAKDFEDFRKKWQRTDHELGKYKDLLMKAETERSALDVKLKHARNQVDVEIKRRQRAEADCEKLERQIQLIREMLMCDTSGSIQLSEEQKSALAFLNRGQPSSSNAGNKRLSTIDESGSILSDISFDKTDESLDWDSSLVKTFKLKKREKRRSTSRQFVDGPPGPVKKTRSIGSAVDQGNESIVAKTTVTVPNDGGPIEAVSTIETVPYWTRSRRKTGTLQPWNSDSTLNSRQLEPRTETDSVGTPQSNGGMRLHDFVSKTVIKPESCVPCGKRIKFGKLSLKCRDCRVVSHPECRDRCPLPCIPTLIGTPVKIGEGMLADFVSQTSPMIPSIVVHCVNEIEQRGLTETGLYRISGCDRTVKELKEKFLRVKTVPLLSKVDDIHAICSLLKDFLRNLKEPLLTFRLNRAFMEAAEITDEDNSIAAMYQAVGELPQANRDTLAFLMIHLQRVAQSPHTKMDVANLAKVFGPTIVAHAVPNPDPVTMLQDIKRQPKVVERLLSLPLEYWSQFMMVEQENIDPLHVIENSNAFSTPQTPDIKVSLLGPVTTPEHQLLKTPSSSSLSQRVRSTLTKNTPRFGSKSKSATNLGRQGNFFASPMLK
# Genome polyprotein = Genome polyprotein (dengue virus type 2, UniProt P29990); assay: Dengue-2 NS5 methyltransferase inhibitors, primary screen, biochemical, confirmation dose response (AID 588689); type: functional
# Cytochrome P450 1A2 = target: T5, Cytochrome P450 1A2 (Homo sapiens, UniProt P05177);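 note: PubChem cytochrome P450 panel assay, CYP1A2 panel member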
# T5 sequence (P05177 whole entry): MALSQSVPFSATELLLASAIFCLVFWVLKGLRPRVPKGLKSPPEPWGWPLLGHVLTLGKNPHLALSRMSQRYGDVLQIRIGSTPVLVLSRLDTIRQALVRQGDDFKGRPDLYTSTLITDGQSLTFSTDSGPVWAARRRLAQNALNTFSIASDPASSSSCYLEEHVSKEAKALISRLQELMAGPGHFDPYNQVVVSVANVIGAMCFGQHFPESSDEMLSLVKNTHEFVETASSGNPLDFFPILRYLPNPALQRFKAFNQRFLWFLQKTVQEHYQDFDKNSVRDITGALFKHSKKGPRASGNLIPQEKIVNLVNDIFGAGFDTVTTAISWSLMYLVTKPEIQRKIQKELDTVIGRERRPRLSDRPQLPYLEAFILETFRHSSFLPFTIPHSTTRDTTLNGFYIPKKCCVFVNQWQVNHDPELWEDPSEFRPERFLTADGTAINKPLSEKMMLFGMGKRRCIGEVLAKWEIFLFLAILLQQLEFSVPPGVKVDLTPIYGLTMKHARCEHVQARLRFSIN
# [14] = target: Induced myeloid leukemia cell differentiation protein Mcl-1 (Homo sapiens, UniProt Q07820); type: functional
# Cytochrome P450 2C9 [15] = target: T2, Cytochrome P450 2C9; remark: listed apart in the source
# [16] = inhibitors of clade B AD8 Env fusion, dose response, cell-based, cherry-pick (AID 652062); type: functional;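 note: luciferase signal from cell-cell fusion driven by HIV-1 clade B AD8 Env; potency is for inhibitors of fusion seen as a drop in luminescence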
# Cytochrome P450 2C19 = Cytochrome P450 2C19 (Homo sapiens, UniProt P33261); assay: Cytochrome panel assay with activity outcomes. Panel member name: p450-cyp2c19 Compounds with AC50 equal or less than 10 uM are considered active; type: functional; conditions: read-out: AC50
# [17] = HEp-2 cell cytotoxicity, dose response, cytotoxicity control for RSV inhibitor project, HTS (AID 2410); type: functional; conditions: human respiratory syncytial virus
# Chain of Induced myeloid leukemia cell differentiation protein Mcl-1 (Q07820 whole entry): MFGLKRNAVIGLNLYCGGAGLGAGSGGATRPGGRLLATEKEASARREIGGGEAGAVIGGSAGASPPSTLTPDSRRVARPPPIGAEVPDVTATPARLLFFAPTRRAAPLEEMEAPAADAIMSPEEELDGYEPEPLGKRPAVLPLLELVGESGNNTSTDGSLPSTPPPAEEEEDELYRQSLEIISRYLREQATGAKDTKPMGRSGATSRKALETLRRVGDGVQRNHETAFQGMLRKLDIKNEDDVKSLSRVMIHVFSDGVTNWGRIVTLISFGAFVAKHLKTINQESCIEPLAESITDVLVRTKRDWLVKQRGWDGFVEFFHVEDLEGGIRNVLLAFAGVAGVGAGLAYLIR
# T1 sequence (P49327 whole entry, the tested form may be a part): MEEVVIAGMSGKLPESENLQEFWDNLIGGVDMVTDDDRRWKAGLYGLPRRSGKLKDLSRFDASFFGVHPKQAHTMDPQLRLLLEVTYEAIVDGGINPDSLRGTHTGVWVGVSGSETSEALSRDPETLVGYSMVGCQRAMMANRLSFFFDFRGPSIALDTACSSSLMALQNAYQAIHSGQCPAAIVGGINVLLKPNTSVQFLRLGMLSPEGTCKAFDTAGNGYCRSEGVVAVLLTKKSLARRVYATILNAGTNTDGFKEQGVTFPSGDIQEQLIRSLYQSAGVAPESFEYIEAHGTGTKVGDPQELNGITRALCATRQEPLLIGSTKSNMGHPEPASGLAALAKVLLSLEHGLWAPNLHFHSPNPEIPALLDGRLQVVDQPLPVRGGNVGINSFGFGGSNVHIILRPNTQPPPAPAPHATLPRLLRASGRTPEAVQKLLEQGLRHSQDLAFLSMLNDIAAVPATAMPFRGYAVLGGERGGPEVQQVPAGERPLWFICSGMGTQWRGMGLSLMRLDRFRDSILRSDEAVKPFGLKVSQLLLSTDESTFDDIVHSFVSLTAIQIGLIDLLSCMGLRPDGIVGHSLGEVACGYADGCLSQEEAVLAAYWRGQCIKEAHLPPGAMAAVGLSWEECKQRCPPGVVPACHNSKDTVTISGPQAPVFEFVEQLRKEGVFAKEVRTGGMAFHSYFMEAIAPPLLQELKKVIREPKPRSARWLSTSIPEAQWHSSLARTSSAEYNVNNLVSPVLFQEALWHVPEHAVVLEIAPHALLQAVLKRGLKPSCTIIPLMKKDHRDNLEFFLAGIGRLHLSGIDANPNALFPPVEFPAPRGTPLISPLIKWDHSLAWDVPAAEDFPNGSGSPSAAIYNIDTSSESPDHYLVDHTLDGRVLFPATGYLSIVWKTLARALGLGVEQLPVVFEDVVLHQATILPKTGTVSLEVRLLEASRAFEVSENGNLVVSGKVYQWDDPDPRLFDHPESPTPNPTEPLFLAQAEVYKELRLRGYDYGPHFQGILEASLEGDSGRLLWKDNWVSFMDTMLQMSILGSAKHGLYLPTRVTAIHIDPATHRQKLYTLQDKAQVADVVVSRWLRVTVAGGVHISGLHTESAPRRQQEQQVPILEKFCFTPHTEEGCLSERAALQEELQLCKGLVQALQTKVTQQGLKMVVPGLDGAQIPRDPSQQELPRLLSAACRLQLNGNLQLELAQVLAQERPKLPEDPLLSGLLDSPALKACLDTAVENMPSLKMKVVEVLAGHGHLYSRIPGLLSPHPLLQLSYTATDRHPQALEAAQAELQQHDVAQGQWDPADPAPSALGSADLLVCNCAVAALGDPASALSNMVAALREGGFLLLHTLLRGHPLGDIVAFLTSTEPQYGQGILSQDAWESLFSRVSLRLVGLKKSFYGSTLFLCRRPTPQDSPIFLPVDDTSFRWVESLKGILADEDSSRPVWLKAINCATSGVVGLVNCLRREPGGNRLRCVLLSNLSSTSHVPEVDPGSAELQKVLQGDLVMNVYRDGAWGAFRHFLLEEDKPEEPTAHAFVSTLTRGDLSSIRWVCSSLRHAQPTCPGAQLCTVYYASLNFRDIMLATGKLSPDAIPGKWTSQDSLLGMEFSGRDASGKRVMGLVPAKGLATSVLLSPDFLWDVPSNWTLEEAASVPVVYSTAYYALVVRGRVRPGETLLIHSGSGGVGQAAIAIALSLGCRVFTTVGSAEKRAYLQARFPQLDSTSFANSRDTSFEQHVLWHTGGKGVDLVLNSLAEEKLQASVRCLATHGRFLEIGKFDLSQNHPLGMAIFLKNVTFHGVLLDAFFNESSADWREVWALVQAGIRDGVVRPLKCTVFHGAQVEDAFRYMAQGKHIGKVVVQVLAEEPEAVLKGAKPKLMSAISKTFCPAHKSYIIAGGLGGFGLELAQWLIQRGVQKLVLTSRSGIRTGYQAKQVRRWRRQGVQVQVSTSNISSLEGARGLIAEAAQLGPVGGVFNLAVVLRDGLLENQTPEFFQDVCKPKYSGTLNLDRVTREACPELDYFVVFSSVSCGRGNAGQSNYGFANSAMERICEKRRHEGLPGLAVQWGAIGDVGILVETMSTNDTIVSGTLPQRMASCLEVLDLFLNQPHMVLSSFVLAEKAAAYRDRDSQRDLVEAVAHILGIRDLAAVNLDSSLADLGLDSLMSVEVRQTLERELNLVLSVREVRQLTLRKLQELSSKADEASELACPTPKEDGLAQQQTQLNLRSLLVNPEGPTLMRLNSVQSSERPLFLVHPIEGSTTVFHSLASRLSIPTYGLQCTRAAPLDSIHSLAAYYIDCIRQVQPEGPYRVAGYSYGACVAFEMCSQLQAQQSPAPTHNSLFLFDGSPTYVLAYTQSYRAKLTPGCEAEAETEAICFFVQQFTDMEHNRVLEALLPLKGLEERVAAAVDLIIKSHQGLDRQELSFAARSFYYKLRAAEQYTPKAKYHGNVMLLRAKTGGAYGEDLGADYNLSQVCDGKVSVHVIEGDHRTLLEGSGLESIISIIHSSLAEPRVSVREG
# T2 sequence (P11712 whole entry): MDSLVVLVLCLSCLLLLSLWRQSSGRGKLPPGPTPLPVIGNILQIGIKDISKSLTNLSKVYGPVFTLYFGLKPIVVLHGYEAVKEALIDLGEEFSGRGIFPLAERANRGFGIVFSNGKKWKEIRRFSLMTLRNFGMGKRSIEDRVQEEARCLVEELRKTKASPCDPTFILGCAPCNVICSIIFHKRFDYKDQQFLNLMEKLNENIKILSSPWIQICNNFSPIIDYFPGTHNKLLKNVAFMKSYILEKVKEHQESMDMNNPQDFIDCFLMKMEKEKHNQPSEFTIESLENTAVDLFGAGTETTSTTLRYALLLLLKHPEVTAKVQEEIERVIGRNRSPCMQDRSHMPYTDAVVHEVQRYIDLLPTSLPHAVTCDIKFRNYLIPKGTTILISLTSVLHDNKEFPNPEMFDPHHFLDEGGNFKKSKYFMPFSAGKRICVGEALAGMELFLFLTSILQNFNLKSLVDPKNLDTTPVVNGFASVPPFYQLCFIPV
# Chain of Large T antigen (P03070 whole entry): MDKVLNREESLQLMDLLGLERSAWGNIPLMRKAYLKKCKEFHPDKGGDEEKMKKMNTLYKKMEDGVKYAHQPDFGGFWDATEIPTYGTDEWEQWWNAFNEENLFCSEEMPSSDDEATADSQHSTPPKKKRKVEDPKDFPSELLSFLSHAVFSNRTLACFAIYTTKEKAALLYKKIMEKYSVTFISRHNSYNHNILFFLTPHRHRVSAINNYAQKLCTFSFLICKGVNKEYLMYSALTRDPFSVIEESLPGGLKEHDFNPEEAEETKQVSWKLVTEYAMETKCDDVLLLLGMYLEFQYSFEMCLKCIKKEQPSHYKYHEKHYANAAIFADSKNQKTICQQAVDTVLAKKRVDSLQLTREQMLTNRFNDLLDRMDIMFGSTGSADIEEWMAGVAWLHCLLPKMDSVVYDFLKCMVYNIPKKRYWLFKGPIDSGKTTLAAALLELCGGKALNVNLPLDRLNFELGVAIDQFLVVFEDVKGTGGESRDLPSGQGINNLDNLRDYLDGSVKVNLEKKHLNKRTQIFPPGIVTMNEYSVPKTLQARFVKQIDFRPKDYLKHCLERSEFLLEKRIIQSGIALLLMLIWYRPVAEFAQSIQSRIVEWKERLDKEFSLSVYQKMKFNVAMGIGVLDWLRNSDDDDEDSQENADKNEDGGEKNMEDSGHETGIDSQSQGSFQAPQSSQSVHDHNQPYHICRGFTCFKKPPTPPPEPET
# Chain of Genome polyprotein (P29990 2492-3391 limits assumed): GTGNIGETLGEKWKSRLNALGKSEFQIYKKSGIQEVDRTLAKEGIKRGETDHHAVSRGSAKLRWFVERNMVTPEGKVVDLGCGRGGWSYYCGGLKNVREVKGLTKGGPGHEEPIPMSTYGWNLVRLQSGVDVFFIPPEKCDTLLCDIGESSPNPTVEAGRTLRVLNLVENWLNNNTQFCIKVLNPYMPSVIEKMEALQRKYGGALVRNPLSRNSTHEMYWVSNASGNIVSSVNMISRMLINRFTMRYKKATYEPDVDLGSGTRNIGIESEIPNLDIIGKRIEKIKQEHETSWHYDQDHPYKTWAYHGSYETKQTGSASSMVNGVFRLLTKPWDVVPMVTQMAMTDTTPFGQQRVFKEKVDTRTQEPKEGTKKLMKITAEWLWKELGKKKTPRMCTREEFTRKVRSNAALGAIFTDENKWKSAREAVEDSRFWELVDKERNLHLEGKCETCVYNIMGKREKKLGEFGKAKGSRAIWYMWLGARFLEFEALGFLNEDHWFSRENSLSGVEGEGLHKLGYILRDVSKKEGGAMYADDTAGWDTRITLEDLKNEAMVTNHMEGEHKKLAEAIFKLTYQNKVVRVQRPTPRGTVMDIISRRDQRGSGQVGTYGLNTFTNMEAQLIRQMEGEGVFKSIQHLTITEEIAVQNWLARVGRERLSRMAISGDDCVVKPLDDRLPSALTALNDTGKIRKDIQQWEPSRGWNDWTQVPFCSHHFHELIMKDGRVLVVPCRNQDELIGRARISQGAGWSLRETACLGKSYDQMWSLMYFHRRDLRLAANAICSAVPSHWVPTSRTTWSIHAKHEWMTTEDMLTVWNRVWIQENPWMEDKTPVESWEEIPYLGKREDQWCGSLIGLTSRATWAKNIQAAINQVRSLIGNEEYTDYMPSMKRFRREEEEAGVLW
smiles,measurement,setting,value
COc1ccc([N+](=O)[O-])cc1NC(=O)CCCOc1ccccc1,IC50,Fatty acid synthase [1],7.3 µM (active)
same,IC50,Fatty acid synthase [2],8.62 µM (active)
Cc1ccc(S(=O)(=O)Nc2ccccc2C=O)cc1,AC50,Cytochrome P450 2C9 [3],inconclusive
NCCCNc1ccc2c3c(nn2CCNCCO)-c2c(O)ccc(O)c2C(=O)c13,GI50,P388/ADR,1.21 µM (inactive)
same,GI50,SN12K1,0.167 µM (active)
same,GI50,P388,0.146 µM (active)
S=C(NCc1ccc(Cl)cc1)NC1CCN(Cc2ccccc2)CC1,EC50,[4],2.86 µM (active)
same,IC50,[5],18.6 µM (not active)
same,EC50,[6],> 30 µM (not active)
Cc1cc(C)nc(Nc2n[nH]c(COc3cccc4ccccc34)n2)n1,AC50,Cytochrome P450 3A4,2.24 µM (inconclusive)
same,AC50,Cytochrome P450 2C9 [3],inconclusive
O=C(N/N=C\c1ccccc1OCc1ccccc1)c1ccco1,CC50,[7],39.6 µM (active)
COc1ccc(C(=O)/C(Br)=C/C(=O)O)cc1,GI50,P388/ADR,17.7 µM (inactive)
same,GI50,SN12K1,6 µM (inactive)
same,GI50,P388,11.7 µM (inactive)
Cc1ccc(C(=O)N/C(=C\c2cccc([N+](=O)[O-])c2)C(=O)Nc2cccc(C(=O)O)c2)cc1,IC50,Fatty acid synthase [1],15.1 µM (active)
same,IC50,Fatty acid synthase [2],8.2 µM (active)
CC1(C)N=C(N)N=C(N)N1c1ccc(OCCCOc2ccccc2)c(Cl)c1,EC50,BJ [8],23.8 µM (active)
same,EC50,BJ [9],< 0.12 µM (active)
same,EC50,BJ [10],> 150 µM (not active)
same,EC50,[11],0.174 µM (inconclusive)
same,AC50,INS1,5.88 µM (active)
same,GI50,P388/ADR,1.39 µM (inactive)
same,GI50,SN12K1,0.0289 µM (active)
same,GI50,P388,< 0.01 µM (active)
O=S(=O)(Nc1ccc(-c2csc(-c3ccccc3)n2)cc1)c1ccccc1,AC50,[12],5.04 µM (active)
same,IC50,Fatty acid synthase [1],9.18 µM (active)
same,IC50,Fatty acid synthase [2],8.85 µM (active)
CC(C)NC(=O)c1ccc(-c2cccc(C(F)(F)F)c2)o1,AC50,Cytochrome P450 2C9 [3],inconclusive
O=C(COc1ccccc1[N+](=O)[O-])N/N=C/c1ccc(O)cc1,IC50,Large T antigen,9.26 µM (active)
same,IC50,[13],80.8 µM (active)
C=C1C(=O)OC2C1CC1OC2C(C)CCC/C(C)=C\CCC1(C)O (stereo not drawn),GI50,P388/ADR,9.66 µM (inactive)
same,GI50,SN12K1,10.9 µM (inactive)
same,GI50,P388,8.05 µM (inactive)
CCN(CC)CCCNc1ncc(C)c2[nH]c3ccncc3c12,GI50,P388/ADR,76.9 µM (inactive)
same,GI50,SN12K1,5.56 µM (inactive)
same,GI50,P388,0.479 µM (active)
CCC(C(=O)O)N1C(=O)/C(=C/C(C)=C/c2ccccc2)SC1=S (stereo not drawn),IC50,Genome polyprotein,37.8 µM (active)
CC1=NOC(=O)/C1=C\c1ccc(-c2ccc(Br)cc2C(=O)O)o1,IC50,Genome polyprotein,20.1 µM (active)
COC(=O)c1ccc(COc2cc([N+](=O)[O-])cc3cccnc23)o1,IC50,Fatty acid synthase [1],13.3 µM (active)
same,IC50,Fatty acid synthase [2],11.6 µM (active)
C=CCOc1ccc(CNc2ccc3[nH]c(O)nc3c2)cc1OCC,IC50,Large T antigen,20.5 µM (active)
COc1cc(/C=N/NC(=O)c2ccncc2)ccc1O,IC50,Large T antigen,6.8 µM (active)
Cc1ccc(-c2ccc(/C=N/NC(=O)CN3CCCC3)o2)cc1Cl,CC50,[7],37.8 µM (active)
FC(F)(F)c1cccc(N2CCN(CC3CC4C=CC3C4)CC2)c1 (stereo not drawn),AC50,Cytochrome P450 1A2,11.2 µM (inconclusive)
same,AC50,Cytochrome P450 3A4,39.8 µM (inconclusive)
same,AC50,Cytochrome P450 2C9 [3],inconclusive
C1=Cc2ccccc2Nc2ccccc21 [IMINOSTILBENE],IC50,Large T antigen,14.3 µM (active)
same,IC50,[13],14.9 µM (active)
Cc1nn(-c2ccc(Br)cc2)c(O)c1/C=N/c1ccc(S(=O)(=O)Nc2nccs2)cc1,IC50,[14],6 µM (active)
O=C(Nc1ccc(N2CCCC2)cc1)c1ccc(Br)o1,IC50,[14],0.932 µM (active)
COc1cc(C2c3cc4c(cc3[C@@H](Nc3cnc5ccccc5c3)C3COC(=O)[C@H]23)OCO4)cc(OC)c1O (stereo partly drawn),GI50,P388/ADR,0.182 µM (active)
same,GI50,SN12K1,0.0269 µM (active)
same,GI50,P388,< 0.01 µM (active)
COc1ccccc1NC(=O)c1sc2ncn(Cc3ccccc3C)c(=O)c2c1C,AC50,Cytochrome P450 2C9 [3],inconclusive
O=[N+]([O-])c1ccc(NCc2ccccc2)nc1,IC50,[5],34.1 µM (not active)
Oc1nc2cc(NCc3ccc(F)cc3)ccc2[nH]1,IC50,Large T antigen,13.2 µM (active)
Cc1ccc2c(c1)C1CN(C)CCC1N2C(=O)Nc1cccc(Cl)c1 (stereo not drawn),IC50,[14],8.64 µM (not active)
same,AC50,Cytochrome P450 2C9 [15],39.8 µM (inconclusive)
O=c1c(-c2ccc(O)cc2)coc2cc(O[C@@H]3O[C@H](CO)[C@@H](O)[C@H](O)[C@H]3O)ccc12 [DAIDZIN],IC50,Large T antigen,> 100 µM (active)
CCOC(=O)N1CCN(Cc2nc3ccc([N+](=O)[O-])cc3c(=O)n2-c2cccc(OC)c2)CC1,IC50,Fatty acid synthase [1],3.46 µM (active)
same,IC50,Fatty acid synthase [2],3.04 µM (active)
CCC(NCCc1c[nH]c2ccccc12)=C1C(=O)N(C)C(=O)N(C)C1=O,AC50,[16],17.6 µM (active)
Cc1ccc(C(=O)Nc2ccc(N3CCOCC3)nc2)cc1,AC50,Cytochrome P450 2C19,2.82 µM (inconclusive)
same,AC50,Cytochrome P450 1A2,17.8 µM (inconclusive)
same,AC50,Cytochrome P450 2C9 [3],inconclusive
COc1ccccc1CNC(=O)CCN1C(=O)COc2ccc(C)cc21,AC50,Cytochrome P450 2C9 [3],inconclusive
N#C/C(=C\c1ccc(O)c(O)c1)C(=O)NCc1ccccc1,IC50,Large T antigen,14.6 µM (active)
same,AC50,Cytochrome P450 2C19,25.1 µM (inconclusive)
same,AC50,Cytochrome P450 2C9 [3],inconclusive
CC(C)(C)c1ccc(C(=O)Nc2cccc([N+](=O)[O-])c2)cc1,CC50,[17],5.38 µM (active)
same,IC50,[5],2.13 µM (not active)
Cc1ccc(CNC(=O)c2ccc3c(=O)[nH]c4c(C(=O)NCC5CCCO5)sc(=S)n4c3c2)cc1 (stereo not drawn),IC50,[5],5.68 µM (active)
same,IC50,[14],6.74 µM (active)
C[C@]12CC[C@H](O)C=C1CC[C@@H]1[C@@H]2CC[C@]2(C)C(c3ccc(=O)oc3)CC[C@]12O (stereo partly drawn),GI50,P388/ADR,119 µM (inactive)
same,GI50,SN12K1,0.0136 µM (active)
same,GI50,P388,116 µM (inactive)
COc1ccc(NC(=O)c2[nH]cnc2C(=O)N[C@H](C)c2ccccc2)cc1,IC50,Fatty acid synthase [1],10.9 µM (active)
same,IC50,Fatty acid synthase [2],11.5 µM (active)
CCN(Cc1ccccc1)C(=O)COC(=O)c1cc(Cl)nc(Cl)c1,IC50,Fatty acid synthase [1],9.66 µM (active)
same,IC50,Fatty acid synthase [2],9.26 µM (active)
O/N=C(\c1ccc2c(c1)OCCO2)C1CCCCC1,IC50,[5],25.1 µM (not active)
Nc1cc(S(=O)(=O)N2CCCCC2)ccc1Oc1ccccc1,IC50,[5],20.8 µM (not active)
